Here are results for 44 compounds from patent US10774068B2, “Composition and methods for inhibiting mammalian sterile 20-like kinase 1” (The Scripps Research Institute, priority 2015, dated 2020).

Read-outs that look alike come from different tables or passages of the source. Bounds are passed on as bounds.

For one assay, the target named is MST1 (Homo sapiens (Human), UniProt Q13043). Briefly: MST1 biochemical LanthaScreen Eu Kinase Binding Assay. How it is done:
(§1) MST1 and MST2 biochemical LanthaScreen Eu Kinase Binding Assay was based on the binding and displacement of kinase tracer to the kinase of interest. Compounds in 1000×DMSO stock solution was dispensed using automated dispensing system (Labcyte) to 384 well Corning Microplate at 15 nL, 5 uL of Kinase buffer A was added to each well. Plates were shaken and incubated for 1 min to ensure well dissolution of compounds.
For orientation: TR-FRET usually uses a lanthanide donor and a delayed reading to cut background.

For the next assay, the target named is MST2 (Homo sapiens (Human), UniProt Q13188). The assay is described as follows: MST2 biochemical LanthaScreen Eu Kinase Binding Assay. How it is done: as §1
The mark [1] stands for this setting: read-out: Kinase Binding assay-MST1 IC50.
Setting [2] is: read-out: Kinase Binding assay-MST2 IC50.

Chain of MST1 (Q13043 whole entry): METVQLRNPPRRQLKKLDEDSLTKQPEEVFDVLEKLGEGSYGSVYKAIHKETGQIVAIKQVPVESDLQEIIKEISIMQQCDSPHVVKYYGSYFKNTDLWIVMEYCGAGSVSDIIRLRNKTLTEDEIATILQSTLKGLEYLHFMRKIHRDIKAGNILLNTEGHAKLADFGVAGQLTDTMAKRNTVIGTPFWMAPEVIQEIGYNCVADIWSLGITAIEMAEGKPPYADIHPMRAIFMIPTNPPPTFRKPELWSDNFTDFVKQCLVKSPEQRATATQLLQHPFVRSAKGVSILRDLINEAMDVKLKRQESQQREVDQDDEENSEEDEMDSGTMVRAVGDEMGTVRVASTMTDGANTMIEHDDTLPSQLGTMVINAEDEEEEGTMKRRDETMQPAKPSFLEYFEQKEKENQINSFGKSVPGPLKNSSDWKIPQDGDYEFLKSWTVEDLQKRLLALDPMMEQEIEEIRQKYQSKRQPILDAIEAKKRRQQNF
Chain of MST2 (Q13188 whole entry): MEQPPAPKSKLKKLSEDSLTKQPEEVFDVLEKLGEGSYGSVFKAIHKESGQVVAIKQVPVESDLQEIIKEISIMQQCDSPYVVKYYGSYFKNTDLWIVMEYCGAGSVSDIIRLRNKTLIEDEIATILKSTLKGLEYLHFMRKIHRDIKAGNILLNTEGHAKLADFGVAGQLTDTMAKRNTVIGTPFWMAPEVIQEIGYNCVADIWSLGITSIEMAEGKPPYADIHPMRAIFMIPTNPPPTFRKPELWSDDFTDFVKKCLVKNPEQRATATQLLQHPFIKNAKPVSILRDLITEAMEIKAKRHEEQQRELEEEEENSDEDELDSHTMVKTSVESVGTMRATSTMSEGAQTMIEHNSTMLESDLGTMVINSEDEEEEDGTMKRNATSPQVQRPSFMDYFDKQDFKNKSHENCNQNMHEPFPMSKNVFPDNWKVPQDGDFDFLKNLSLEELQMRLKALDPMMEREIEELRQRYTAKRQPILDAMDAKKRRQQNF

For `Cc1cccnc1COc1ccc(Nc2ccnc3ccc(NC(=O)CCCN(C)C)cc23)c(Cl)c1` [Example 147, N-(4-(2-chloro-4-((3-methylpyridin-2-yl)methoxy)phenylamino)quinolin-6-yl)-4-(dimethylamino)butanamide], the IC50 on MST1 (setting [1]) and on MST2 was 1 to 10 µM each time.
Regarding `CCOc1cc2ncc(C#N)c(Nc3ccc(OCc4ncccc4Br)c(Cl)c3)c2cc1NC(=O)CCCN(C)C` [Example 15], the IC50 on MST1 (setting [1]) and on MST2 (setting [2]) was under 0.1 µM each time.
Regarding `CCOc1cc2ncc(C#N)c(Nc3ccc(OCc4ncccc4C)c(OC(F)(F)F)c3)c2cc1NC(=O)CCCN(C)C` [Example 80], the IC50 at MST1 (setting [1]) and at MST2 was 0.1 to 1 µM each time.
For `CCOc1cc2ncc(C#N)c(Nc3ccc(OCc4ncccc4C#N)c(Cl)c3)c2cc1NC(=O)CCCN(C)C` [Example 19], the IC50 on MST1 (setting [1]) and at MST2 (setting [2]) was under 0.1 µM each time.
With `CCOc1cc2ncc(C#N)c(Nc3ccc(OCc4ncccc4C)c(Br)c3)c2cc1NC(=O)CCCN(C)C` [Example 24], the IC50 on MST1 (setting [1]) and on MST2 (setting [2]) was under 0.1 µM in each case.
As for `CCOc1cc2ncc(C#N)c(Nc3cc(Cl)c(OCc4ncccc4C)cc3Cl)c2cc1NC(=O)CCCN(C)C` [Example 75], the concentration for half-maximal inhibition (IC50) on MST1 (setting [1]) and on MST2 (setting [2]) was under 0.1 µM in each case.
On to `CCOc1cc2ncc(C#N)c(Nc3ccc(OCc4ncccc4C)cc3C)c2cc1NC(=O)CCCN(C)C` [Example 31], for which the IC50 at MST1 (setting [1]) and on MST2 (setting [2]) was under 0.1 µM in each case.
Take `CCOc1cc2ncc(C#N)c(Nc3ccc(OCc4ncccc4C)c(Cl)c3)c2cc1NC(C)=O` [Example 84, N-(4-(3-chloro-4-((3-methylpyridin-2-yl)methoxy)phenylamino)-3-cyano-7-ethoxyquinolin-6-yl)acetamide]: the IC50 on MST1 (setting [1]) and on MST2 (setting [2]) was under 0.1 µM in each case.
Regarding `CCOc1cc2ncc(C#N)c(Nc3ccc(OCc4ncccc4C)cc3C(F)(F)F)c2cc1NC(=O)CCCN(C)C` [Example 29], the IC50 on MST1 and at MST2 was 0.1 to 1 µM throughout.
`CCOc1cc2ncc(C#N)c(Nc3ccc(OCc4ccc(C)cn4)c(Cl)c3)c2cc1NC(=O)CCCN(C)C` [Example 11]: the IC50 at MST1 (setting [1]) is 0.1 to 1 µM; on MST2 (setting [2]) it was under 0.1 µM.
In the case of `CCOc1cc2ncc(C#N)c(Nc3ccc(OCc4nc(Br)ccc4C)cc3Cl)c2cc1NC(=O)CCCN(C)C` [Example 77], the IC50 at MST1 (setting [1]) and on MST2 (setting [2]) was under 0.1 µM each time.
As for `CCOc1cc2ncc(C#N)c(Nc3cc(Cl)c(OCc4ncccc4C)c(Cl)c3)c2cc1NC(=O)CCCN(C)C` [Example 26], the IC50 at MST1 (setting [1]) and at MST2 (setting [2]) was under 0.1 µM in each case.
As for `CCOc1cc2ncc(C#N)c(Nc3ccc(OCc4ncccc4CO)cc3Cl)c2cc1NC(=O)CCCN(C)C` [Example 83], the half-maximal inhibitory concentration (IC50) at MST1 (setting [1]) and on MST2 (setting [2]) was under 0.1 µM in each case.
On to `CCOc1cc2ncc(C#N)c(Nc3cc(C)c(OCc4ncccc4C)cc3C)c2cc1NC(=O)CCCN(C)C` [Example 34], for which the IC50 on MST1 (setting [1]) and on MST2 (setting [2]) was under 0.1 µM each time.
As for `CCOc1cc2ncc(C#N)c(Nc3ccc(OCc4ncccc4C)c(OC)c3)c2cc1NC(=O)CCCN(C)C` [Example 28], the concentration for half-maximal inhibition (IC50) on MST1 (setting [1]) and at MST2 (setting [2]) was under 0.1 µM throughout.
In the case of `CCOc1cc2ncc(C#N)c(Nc3cc(Cl)c(OCc4ncccc4C)cc3Br)c2cc1NC(=O)CCCN(C)C` [Example 79], the IC50 on MST1 (setting [1]) and at MST2 (setting [2]) was under 0.1 µM in each case.
Regarding `CCOc1cc2ncc(C#N)c(Nc3ccc(OCc4cn5cccc(C)c5n4)c(Cl)c3)c2cc1NC(=O)CCCN(C)C` [Example 41], the IC50 on MST1 (setting [1]) and on MST2 (setting [2]) was under 0.1 µM each time.
For the compound `CCOc1cc2ncc(C#N)c(Nc3ccc(OCc4ncccc4C)c(C)c3C)c2cc1NC(=O)CCCN(C)C` [Example 33], the IC50 on MST1 (setting [1]) and at MST2 (setting [2]) was under 0.1 µM throughout.
Turning to `CCOc1cc2ncc(C#N)c(Nc3ccc(O)cc3C)c2cc1NC(=O)CCCN(C)C` [Example 139], the IC50 at MST1 (setting [1]) was 0.1 to 1 µM; at MST2, 1 to 10 µM.
Take `CCOc1cc2ncc(C#N)c(Nc3ccc(OCc4ccccn4)c(Cl)c3)c2cc1NC(=O)CCCN1CCCC1` [Example 95, N-(4-(3-chloro-4-(pyridin-2-ylmethoxy)phenylamino)-3-cyano-7-ethoxyquinolin-6-yl)-4-(pyrrolidin-1-yl)butanamide]: the IC50 was under 0.1 µM at MST1 (setting [1]) and 0.1 to 1 µM on MST2.
For `CCOc1cc2ncc(C#N)c(Nc3ccc(OCc4ccccn4)c(F)c3)c2cc1NC(=O)CCCN(C)C` [Example 9], in that order: 0.1 to 1 µM and 0.1 to 1 µM.
Regarding `CCOc1cc2ncc(C#N)c(Nc3ccc(OCc4ncccc4C(F)(F)F)c(Cl)c3)c2cc1NC(=O)CCCN(C)C` [Example 17], the IC50 on MST1 (setting [1]) and at MST2 (setting [2]) was under 0.1 µM throughout.
As to `CCOc1cc2ncc(C#N)c(Nc3ccc(OCc4cccc(Br)n4)c(Cl)c3)c2cc1NC(=O)CCCN(C)C` [Example 3], the IC50 on MST1 (setting [1]) and at MST2 (setting [2]) was under 0.1 µM throughout.
Turning to `CCOc1cc2ncc(C#N)c(Nc3ccc(OCc4ccccn4)c(Cl)c3)c2cc1NC(=O)CCCN(C)C` [Example 8], the IC50 was under 0.1 µM on MST1 (setting [1]) and 0.1 to 1 µM on MST2.
Consider `CCOc1cc2ncc(C#N)c(Nc3cc(Cl)c(OCc4ncccc4C)cc3C)c2cc1NC(=O)CCCN(C)C` [Example 78], for which the IC50 on MST1 (setting [1]) and at MST2 (setting [2]) was under 0.1 µM each time.
As to `CCOc1cc2ncc(C#N)c(Nc3ccc(OCc4cc(C#N)ccn4)c(Cl)c3)c2cc1NC(=O)CCCN(C)C` [Example 36], the IC50 on MST1 (setting [1]) and on MST2 was 0.1 to 1 µM each time.
Regarding `CCOc1cc2ncc(C#N)c(Nc3ccc(OCc4ncccc4CC)c(Cl)c3)c2cc1NC(=O)CCCN(C)C` [Example 45], the IC50 on MST1 (setting [1]) and on MST2 (setting [2]) was under 0.1 µM each time.
For the compound `CCOc1cc2ncc(C#N)c(Nc3ccc(OCc4ccn(C)n4)c(Cl)c3)c2cc1NC(=O)CCCN(C)C` [Example 67], the IC50 on MST1 (setting [1]) and at MST2 was 0.1 to 1 µM in each case.
Turning to `Cc1cccnc1COc1ccc(Nc2c(C#N)cnc3ccc(NC(=O)CCCN(C)C)cc23)c(Cl)c1` [Example 144, N-(4-(2-chloro-4-((3-methylpyridin-2-yl)methoxy)phenylamino)-3-cyanoquinolin-6-yl)-4-(dimethylamino)butanamide], the IC50 at MST1 and on MST2 was 0.1 to 1 µM in each case.
As for `CCOc1cc2ncc(C#N)c(Nc3ccc(OCc4ccccn4)c(Cl)c3)c2cc1NC(C)=O` [Example 85], the IC50 on MST1 (setting [1]) was under 0.1 µM; at MST2, 1 to 10 µM.
The matching figures for `CCOc1cc2ncc(C#N)c(Nc3ccc(OCc4nc5ccccc5nc4C)c(Cl)c3)c2cc1NC(=O)CCCN(C)C` [Example 42]: under 0.1 µM and 0.1 to 1 µM.
The matching figures for `CCOc1cc2ncc(C#N)c(Nc3ccc(OCc4ncccc4OC)c(Cl)c3)c2cc1NC(=O)CCCN(C)C` [Example 18]: under 0.1 µM and 0.1 to 1 µM.
Regarding `CCOc1cc2ncc(C#N)c(Nc3ccc(OCc4ncccc4C)c(Cl)c3)c2cc1NC(=O)/C=C/CN(C)C` [Example 90, (E)-N-(4-(3-chloro-4-((3-methylpyridin-2-yl)methoxy)phenylamino)-3-cyano-7-ethoxyquinolin-6-yl)-4-(dimethylamino)but-2-enamide], the IC50 at MST1 (setting [1]) and on MST2 (setting [2]) was under 0.1 µM throughout.
As to `CCOc1cc2ncc(C#N)c(Nc3ccc(OCc4cc(OC)ccn4)c(Cl)c3)c2cc1NC(=O)CCCN(C)C` [Example 37], the concentration for half-maximal inhibition (IC50) at MST1 (setting [1]) is under 0.1 µM; at MST2, 0.1 to 1 µM.
`CCOc1cc2ncc(C#N)c(Nc3ccc(OCc4ccccn4)c(Cl)c3)c2cc1NC` [Example 140, 4-(3-chloro-4-(pyridin-2-ylmethoxy)phenylamino)-7-ethoxy-6-(methylamino)quinoline-3-carbonitrile]: the IC50 on MST1 was 0.1 to 1 µM; at MST2 it was 1 to 10 µM.
For the compound `CCOc1cc2ncc(C#N)c(Nc3ccc(CCc4ccccn4)c(Cl)c3)c2cc1NC(=O)CCCN(C)C` [Example 107, N-(4-(3-chloro-4-(2-(pyridin-2-yl)ethyl)phenylamino)-3-cyano-7-ethoxyquinolin-6-yl)-4-(dimethylamino)butanamide], the IC50 on MST1 (setting [1]) and on MST2 (setting [2]) was 0.1 to 1 µM each time.
Take `CCOc1cc2ncc(C#N)c(Nc3cccc(Cl)c3)c2cc1NC(C)=O` [Example 127]: the IC50 at MST1 (setting [1]) and at MST2 (setting [2]) was under 0.1 µM in each case.
Turning to `CCOc1cc2ncc(C#N)c(Nc3ccc(NC(=O)c4ncccc4C)c(Cl)c3)c2cc1NC(=O)CCCN(C)C` [Example 108, N-(2-chloro-4-(3-cyano-6-(4-(dimethylamino)butanamido)-7-ethoxyquinolin-4-ylamino)phenyl)-3-methylpicolinamide], the IC50 on MST1 and at MST2 was 0.1 to 1 µM in each case.
`CCOc1cc2ncc(C#N)c(Nc3ccc(OCc4ncccc4C)cc3C)c2cc1NC(=O)/C=C/CN(C)C` [Example 93]: the IC50 on MST1 (setting [1]) and at MST2 (setting [2]) was under 0.1 µM throughout.
`CCOc1cc2ncc(C#N)c(Nc3ccc(OCc4ncccc4C)c(OC)c3)c2cc1NC(=O)/C=C/CN(C)C` [Example 92]: the IC50 at MST1 (setting [1]) and at MST2 (setting [2]) was under 0.1 µM throughout.
In the case of `CCOc1cc2ncc(C#N)c(Nc3ccc(OCc4cc(Cl)ccn4)c(Cl)c3)c2cc1NC(=O)CCCN(C)C` [Example 2], the IC50 at MST1 (setting [1]) and at MST2 (setting [2]) was under 0.1 µM throughout.
`CCOc1cc2ncc(C#N)c(Nc3ccc(OCc4cccc(Cl)n4)c(Cl)c3)c2cc1NC(=O)CCCN(C)C` [Example 7]: the IC50 on MST1 (setting [1]) and on MST2 (setting [2]) was under 0.1 µM each time.
Regarding `CCOc1cc2ncc(C#N)c(Nc3ccc(OCc4ccccn4)c(Cl)c3)c2cc1NC(=O)CCCN1CCCCC1` [Example 97], the IC50 on MST1 (setting [1]) was under 0.1 µM; on MST2 it was 0.1 to 1 µM.
Regarding `CCOc1cc2ncc(C#N)c(Nc3ccc(OCc4nc(Br)ccc4C)c(Cl)c3)c2cc1NC(=O)CCCN(C)C` [Example 76], the IC50 on MST1 (setting [1]) and at MST2 (setting [2]) was under 0.1 µM throughout.

Usually IC50 stands for the concentration that inhibits the measured activity by half.
